Values of other authors in article PMC6699497 (Drug Design, Development and Therapy, 2019).

How the values were obtained:
[1] = rat
[2] = species not given
[3] = previous study compared with present value

oral bioavailability [1]: 42–53%
Cmax [1, 3]: 326.00 ng/mL
t1/2 [1, 3]: 1.40 h
plasma protein binding fraction [2]: 88–95%
SMILES: CNC(=O)c1c(C)oc2cc(Oc3ncnc4cc(OC)c(OC)cc34)ccc12 [Fruquintinib, 6-(6,7-dimethoxyquinazolin-4-yloxy) - N,2-dimethylbenzofuran-3-carboxamide]
